Results as given in patent US11446298B2, “Pyrimidine derivatives” (Idorsia Pharmaceuticals Ltd, priority 2017, dated 2022).
pIC50: −log10 of the molar value.

How the values were obtained:
[1] = biological target: T1, EP2 (Homo sapiens, UniProt P43116); experiment: hEP2 cAMP Assay (SF295 glioblastoma cells, HTRF cAMP, PGE2 75 nM); assay type: cell-based; conditions: antagonistic activity, PGE2 75 nM (EC80)
T1 construct: SF295 glioblastoma cells express high endogenous EP2 and no EP4; host or cells: SF295 glioblastoma cells
T1 sequence (P43116 whole entry): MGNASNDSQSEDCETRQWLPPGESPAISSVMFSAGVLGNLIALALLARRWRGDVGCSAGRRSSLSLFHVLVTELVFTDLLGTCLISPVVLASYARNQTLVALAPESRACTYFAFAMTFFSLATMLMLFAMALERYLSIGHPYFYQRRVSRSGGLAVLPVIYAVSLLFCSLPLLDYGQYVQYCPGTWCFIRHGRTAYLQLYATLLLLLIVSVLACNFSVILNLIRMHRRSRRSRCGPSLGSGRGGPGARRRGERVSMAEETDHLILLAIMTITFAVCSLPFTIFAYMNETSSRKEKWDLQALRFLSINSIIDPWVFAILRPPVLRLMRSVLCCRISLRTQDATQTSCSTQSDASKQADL
Procedure: (§1) The antagonistic activities of the compounds of formula (I) on the EP2 and EP4 receptors are also determined in accordance with the following experimental method.
(§2) Human tumor cell lines expressing endogenously either EP4 or EP2 are used and cAMP accumulation in cells upon PGE2 stimulation is monitored. SF295 glioblastoma cells express high endogenous EP2 and no EP4, whereas BT549 breast cancer cells, express high endogenous EP4 levels and very low EP2 levels.
(§3) As a detection method for cAMP the HTRF (homogeneous time resolved fluorescence) Cisbio kit (HTRF cAMP dynamic 2 kit 20′000 tests Cisbio Cat. #62AM4PEC) was used, which is based on a competitive immunoassay using a Cryptate-labeled anti-cAMP antibody and d2-labeled cAMP. Native cAMP produced by cells or unlabeled cAMP (for the standard curve) compete with exogenously added d2-labeled cAMP (acceptor) for binding to monoclonal anti-cAMP-Eu3+Cryptate (donor). A FRET signal (Fluorescence Resonance Energy Transfer) is obtained only if the labeled anti-cAMP antibody binds the d2 labelled cAMP, thus the specific signal (i.e. energy transfer) is inversely proportional to the concentration of cAMP in the standard or sample.
(§4) The SF295 cells (NCI/No. 0503170) are detached from culture dishes with a cell dissociation buffer (Invitrogen, 13151-014), and collected in growing medium (GM: RPM11640 (Invitrogen 21875)/10% FCS, 1% Penicilin/streptomycin). Cells are counted washed and resuspended in assay buffer (AB; HBSS, 20 mM HEPES, 0.2% BSA; 2 mM IBMX). 4′000 cells in 5 μL of AB are seeded per well of a small volume 384 well plate (black with flat bottom, Greiner 784076).
(§5) Stock solutions of test compounds are made at a concentration of 10 mM in DMSO, and serially diluted in DMSO to concentrations required for inhibition dose response curves (tested concentration range 30 μM-0.4 nM; 30 μM-0.015 nM or 1 μM-0.01 nM).
PGE2 (Cayman 14010, stock solution: 75 μM in DMSO) is used as agonist at 75 nM final concentration, corresponding to EC80.
(§6) 2.5 μL of diluted compounds are transferred into the assay plate. Plate is pre-incubated 45 minutes at room temperature. Subsequently, 2.5 μL of PGE2 (final conc. 75 nM) are transferred into the assay plate. Plate is incubated 30 minutes at room temperature. Five μL of each donor (anti-cAMP cryptate) and acceptor (cAMP-d2) are added and the plate is incubated another hour at room temperature in the dark and then read using a BMG LABTECH PHERAstar reader (Excitation: 337 nm, Emission: 620 and 665 nm).
(§7) The obtained Delta F (fluorescence) values (665 nm/620 nM) are converted into % cAMP values using the measurements of the cAMP calibrator provided in the kit. For each compound concentration the percentage of cAMP compared to DMSO control value as average ±STDEV (each concentration is measured in duplicate) is calculated.
(§8) IC50 values and curves are generated with XLfit software (IDBS) using Dose-Response One Site model 203. When compounds were measured multiple times, mean values are given.

[2] = biological target: T2, EP4 (Homo sapiens, UniProt P35408); experiment: hEP4 cAMP Assay (BT549 breast cancer cells, HTRF cAMP, PGE2 6 nM); assay type: cell-based; conditions: antagonistic activity, PGE2 6 nM (EC80)
T2 construct: BT549 breast cancer cells, express high endogenous EP4 levels and very low EP2 levels; host or cells: BT549 breast cancer cells
T2 sequence (P35408 whole entry): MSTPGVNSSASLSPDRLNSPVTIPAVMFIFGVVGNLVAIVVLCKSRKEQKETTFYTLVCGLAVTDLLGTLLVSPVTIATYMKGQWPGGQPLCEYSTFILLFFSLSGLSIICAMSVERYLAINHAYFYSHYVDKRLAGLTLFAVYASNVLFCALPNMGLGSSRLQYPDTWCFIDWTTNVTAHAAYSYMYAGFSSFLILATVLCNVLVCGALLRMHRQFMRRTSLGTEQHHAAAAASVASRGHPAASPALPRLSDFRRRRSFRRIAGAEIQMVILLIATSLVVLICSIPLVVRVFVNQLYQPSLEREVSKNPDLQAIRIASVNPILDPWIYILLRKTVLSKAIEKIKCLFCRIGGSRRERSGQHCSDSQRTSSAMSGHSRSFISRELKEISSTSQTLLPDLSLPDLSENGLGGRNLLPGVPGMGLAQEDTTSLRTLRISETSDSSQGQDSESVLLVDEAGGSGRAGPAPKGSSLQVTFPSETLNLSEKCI
Procedure: as §1, §2, §3
as §4, with “BT549” for “SF295”, “0507282)” for “0503170)”, “RPMI1640” for “RPM11640”
as §5
PGE2 (Cayman 14010, stock solution: 6 uM in DMSO) is used as agonist at 6 nM final concentration, corresponding to EC80.
as §6, with “6” for “75”, “5” for “Five”
as §7, §8

Compound	pIC50 [1]	pIC50 [2]
CCOc1cc(-c2cc(NCCc3c(C)c(C)cc4ccccc34)ncn2)ccc1C(=O)O [Example 11, 4-{6-[2-(2,3-Dimethyl-naphthalen-1-yl)-ethylamino]-pyrimidin-4-yl}-2-ethoxy-benzoic acid]	6.58	6.05
O=C(O)c1ccc(-c2cc(NCCc3cccc4cccnc34)ncn2)cc1OC1CCC1 [Example 22, 2-Cyclobutoxy-4-[6-(2-quinolin-8-yl-ethylamino)-pyrimidin-4-yl]-benzoic acid]	6.02	6.21
CCOc1cc(-c2cc(NCCc3cccc4ccn(C)c34)ncn2)ccc1OCC(=O)O [Example 50, (2-Ethoxy-4-{6-[2-(1-methyl-1H-indol-7-yl)-ethylamino]-pyrimidin-4-yl}-phenoxy)-acetic acid]	6.40	6.20
5-{6-[2-(6-Fluoro-2-methoxy-quinolin-8-yl)-ethylamino]-pyrimidin-4-yl}-3-trifluoromethyl-thiophene-2-carboxylic acid [Example 153]	6.36	6.55
CCOc1cc(-c2cc(NCCc3c(OC)ccc4c(OC)cccc34)ncn2)ccc1C(=O)O [Example 54, 4-{6-[2-(2,5-Dimethoxy-naphthalen-1-yl)-ethylamino]-pyrimidin-4-yl}-2-ethoxy-benzoic acid]	6.06	6.38
CCOc1cc(-c2cc(NCCc3c(OC)ccc4c(OC)cccc34)ncn2)ccc1OCC(=O)O [Example 55, (4-{6-[2-(2,5-Dimethoxy-naphthalen-1-yl)-ethylamino]-pyrimidin-4-yl}-2-ethoxy-phenoxy)-acetic acid]	6.08	6.52
CCOc1cc(-c2cc(NCCc3cccc4c3OCO4)ncn2)sc1C(=O)O [Example 36, 5-[6-(2-Benzo[1,3]dioxol-4-yl-ethylamino)-pyrimidin-4-yl]-3-ethoxy-thiophene-2-carboxylic acid]	6.58	6.43
COc1ccc2c(c1CCNc1cc(-c3ccc(C(=O)O)c(OC4CCC4)c3)ncn1)OCO2 [Example 43, 2-Cyclobutoxy-4-{6-[2-(5-methoxy-benzo[1,3]dioxol-4-yl)-ethylamino]-pyrimidin-4-yl}-benzoic acid]	6.60	6.10

Results, then the compound that gave them:

pIC50 [1]	pIC50 [2]	Compound
8.15	7.29	COc1ccc2ccccc2c1CCNc1cc(-c2cc(OCCO)c(C(=O)O)s2)ncn1 [Example 156, 3-(2-Hydroxy-ethoxy)-5-{6-[2-(2-methoxy-naphthalen-1-yl)-ethylamino]-pyrimidin-4-yl}-thiophene-2-carboxylic acid]
6.01	6.05	CCOc1cc(-c2cc(NCCc3cccc4cc(C)oc34)ncn2)ccc1OCC(=O)O [Example 75, (2-Ethoxy-4-{6-[2-(2-methyl-benzofuran-7-yl)-ethylamino]-pyrimidin-4-yl}-phenoxy)-acetic acid]
6.01	6.02	O=C(O)c1sc(-c2cc(NCCc3cccc4cccnc34)ncn2)cc1C(F)(F)F [Example 82, 5-[6-(2-Quinolin-8-yl-ethylamino)-pyrimidin-4-yl]-3-trifluoromethyl-thiophene-2-carboxylic acid]
6.11	6.16	CCOc1cc(-c2cc(NCCc3cccc4ccsc34)ncn2)ccc1CC(=O)O [Example 105, {4-[6-(2-Benzo[b]thiophen-7-yl-ethylamino)-pyrimidin-4-yl]-2-ethoxy-phenyl}-acetic acid]
6.28	6.49	COc1ccc2cccc(CCNc3cc(-c4cc(C(F)(F)F)c(C(=O)O)s4)ncn3)c2n1 [Example 150, 5-{6-[2-(2-Methoxy-quinolin-8-yl)-ethylamino]-pyrimidin-4-yl}-3-trifluoromethyl-thiophene-2-carboxylic Acid]
6.47	6.31	CCOc1cc(-c2cc(NCCc3c(C)ccc4c3cnn4C)ncn2)ccc1OCC(=O)O [Example 80, (4-{6-[2-(1,5-Dimethyl-1H-indazol-4-yl)-ethylamino]-pyrimidin-4-yl}-2-ethoxy-phenoxy)-acetic acid]
